According to patent US20120093917A1, “METNASE AND INTNASE INHIBITORS AND THEIR USE IN TREATING CANCER” (priority 2009, published 2012):

What was measured:
[1] = in vivo; cited from earlier work
ABCB1 (MDR-1; P-gp) = ABCB1 (MDR-1; P-gp) (Homo sapiens, UniProt P08183); settings: not told; cited from earlier work
[2] = tested on: human Pancreatic cancer cell line BXPC3; experiment: Colony formation assay, pancreatic cancer cell line BXPC3; assay type: cell-based; settings: BXPC3, FIG. 16
Method: The human Pancreatic cancer cell line BXPC3 was plated (4000 cells per plate with a ˜10% plating efficiency) in 10 cm dishes, using 10 ml of RPMI media (always with 10% FBS) per plate, and placed in a […] incubator (5% CO2) for 24 hrs. After 24 hrs, each plate was treated with one or a combination of the following agents: DMSO (0.2% in solution), 0.3 μg/ml of gemcitabine (dissolved in 1×PBS), and/or 2 μM of each Metnase/Intnase inhibitor (dissolved in DMSO). When the DMSO, gemcitabine, and/or inhibitors were added, the plates were swirled several times to assure mixing. After the agents were added to the RPMI, the plates were put back into the incubators for 18 hrs. Following 18 hrs treatment, the media was removed and the cells were washed twice with 1×PBS. Ten ml of fresh RPMI with 10% FBS was added and the cells were placed back into the incubator for 14 days. After the incubation period that will allow surviving cells to form colonies, the media was discarded and surviving colonies were stained with methylene blue. Colonies, a reflection of a single surviving cell that expanded, were counted to measure survival. All experiments were run in triplicate. Experiments were normalized to either DMSO (black asterices) or gemcitabine (red asterices).

[3] = molecular target: 166 enzymes, transporters and receptors; settings: read-out: IC50 in screening panel, all assays; cited from earlier work
[4] = tested on: human colon cancer cell line SW48; experiment: Colony formation assay, colon cancer cell line SW48; assay type: cell-based; settings: 2 μM inhibitor, 18 hr treatment, colonies after 7-14 days, normalized to DMSO, FIG. 17
Method: The human colon cancer cell line SW48 was plated (1000 cells per plate with a ˜20% plating efficiency) in 10 cm dishes, using 10 ml of DMEM media (always with 10% FBS) per plate, and placed in a […] incubator (5% CO2) for 24 hrs. After 24 hr, each plate was treated with one or a combination of the following agents: DMSO (0.2% in solution), 3 μM 5-fluorouracil (5FU, dissolved in 1×PBS), and/or 2 μM of each Metnase/intnase inhibitor (dissolved in DMSO). When the DMSO, 5FU, and/or inhibitors were added, the plates were swirled several times to assure mixing. After agents were added to the DMEM, the plates were put back into the incubators for 18 hr. Following 18 hr treatment, the media was removed and the cells were washed twice with 1×PBS. Ten milliliters of fresh DMEM was added and the cells were placed back into the incubator for 7-14 days. After the incubation period that will allow surviving cells to grow and form colonies, media was discarded and surviving colonies were stained with methylene blue. Colonies, a reflection of a single surviving cell that expanded, were counted to measure survival. All experiments were run in triplicate. Experiments were normalized to either DMSO (black asterices) or 5FU (red asterices).

human DNA polymerases = settings: cited from earlier work
cytochrome P450 enzymes = settings: cited from earlier work
[5] = tested on: human myeloid cell line KG-1; experiment: Leukemia cell line KG-1 growth curve, alone or with VP-16; assay type: cell-based; settings: counted daily for 4 days
Method: The human myeloid cell line KG-1 was grown in RPMI1640 with 10% FBS. The small cell lung cancer cell line CRL5898 was grown in HITES medium (Dulbecco's medium: Ham's F12, 50:50 mix, Insulin 0.005 mg/ml Transferrin 0.01 mg/ml Sodium selenite 30 nM Hydrocortisone 10 nM beta-estradiol 10 nM HEPES 10 mM L-glutamine 2 mM (in addition to that in the base medium)). Both cell lines were seeded at 10,000 cells/ml in the appropriate medium in 6 well plates. The Chem Div compounds were resuspended as 5 mM stock solutions in DMSO. The Chem Div compounds were added alone at 2 uM and 5 uM or in combination with VP-16 (also called etoposide) at 0.05 uM. DMSO was added to the control wells. Cells were plated and treated in triplicate and counted daily for 4 days.

ABCB1 (MDR-1; P-gp), sequence (P08183 whole entry, species assumed): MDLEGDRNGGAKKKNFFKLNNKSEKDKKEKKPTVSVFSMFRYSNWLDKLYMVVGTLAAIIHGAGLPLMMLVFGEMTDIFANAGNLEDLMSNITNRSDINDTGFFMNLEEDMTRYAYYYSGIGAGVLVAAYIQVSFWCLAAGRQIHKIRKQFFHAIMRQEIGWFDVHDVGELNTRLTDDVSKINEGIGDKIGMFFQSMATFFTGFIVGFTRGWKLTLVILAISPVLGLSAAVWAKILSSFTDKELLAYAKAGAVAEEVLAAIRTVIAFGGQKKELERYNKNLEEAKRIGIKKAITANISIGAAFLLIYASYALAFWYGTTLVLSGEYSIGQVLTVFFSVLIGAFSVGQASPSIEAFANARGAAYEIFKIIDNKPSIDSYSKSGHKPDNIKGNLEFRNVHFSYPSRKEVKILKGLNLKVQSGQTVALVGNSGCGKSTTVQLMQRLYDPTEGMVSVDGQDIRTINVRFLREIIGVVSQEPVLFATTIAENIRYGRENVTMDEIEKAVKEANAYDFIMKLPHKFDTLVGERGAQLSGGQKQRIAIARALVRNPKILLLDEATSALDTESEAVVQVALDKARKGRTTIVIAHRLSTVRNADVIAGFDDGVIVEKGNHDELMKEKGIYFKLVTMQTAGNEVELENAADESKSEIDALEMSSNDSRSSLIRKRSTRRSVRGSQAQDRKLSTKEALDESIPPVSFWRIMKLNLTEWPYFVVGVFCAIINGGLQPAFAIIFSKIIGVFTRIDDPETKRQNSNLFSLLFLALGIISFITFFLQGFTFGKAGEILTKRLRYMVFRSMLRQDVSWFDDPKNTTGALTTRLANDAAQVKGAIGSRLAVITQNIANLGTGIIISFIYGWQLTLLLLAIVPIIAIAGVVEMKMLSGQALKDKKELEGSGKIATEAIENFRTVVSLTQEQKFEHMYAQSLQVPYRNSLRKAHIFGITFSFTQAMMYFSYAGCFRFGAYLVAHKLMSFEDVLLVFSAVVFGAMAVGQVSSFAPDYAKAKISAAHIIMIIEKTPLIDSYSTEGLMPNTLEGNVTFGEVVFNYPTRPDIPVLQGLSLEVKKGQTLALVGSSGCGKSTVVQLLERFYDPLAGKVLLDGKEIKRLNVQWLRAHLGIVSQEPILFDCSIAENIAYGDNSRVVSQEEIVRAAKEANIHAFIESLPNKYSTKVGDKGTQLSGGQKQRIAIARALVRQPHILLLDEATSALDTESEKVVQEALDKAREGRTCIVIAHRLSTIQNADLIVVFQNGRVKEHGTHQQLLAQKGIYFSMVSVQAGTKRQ

Q: With `Cc1nnc(C(=O)NC(C)(C)C2=N/C(=C(\O)NCc3ccc(F)cc3)C(=O)C(=O)N2C)o1` [Raltegravir, N-[2-[(4Z)-4-[[(4-fluorophenyl)methylamino]-hydroxymethylidene]-1-methyl-5,6-dioxopyrimidin-2-yl]propan-2-yl]-5-methyl-1,3,4-oxadiazole-2-carboxamide] as the compound, how does the Serum half-life [1] read?
A: 9 h

Q: What about the “inhibitor of ABCB1 (MDR-1; P-gp)” value (ABCB1 (MDR-1; P-gp)) of the same compound?
A: not an inhibitor

Q: And the “potentiation of gemcitabine (surviving colonies)” value ([2]; 2 μM inhibitor + 0.3 μg/ml gemcitabine, 18 hrs, normalized to gemcitabine)?
A: potentiate gemcitabine

Q: And the “activity on their own against the pancreatic cancer cells (surviving colonies)” value ([2]; 2 μM inhibitor, 18 hrs treatment, colonies after 14 days, normalized to DMSO)?
A: activity on their own

Q: And the IC50 [3]?
A: > 10 µM

Q: And the “activity on their own against the colon cancer cells (surviving colonies)” value [4]?
A: activity on their own

Q: And the “inhibition of human DNA polymerases” value (human DNA polymerases)?
A: does not inhibit

Q: And the “substrate, inducer or inhibitor of cytochrome P450 enzymes” value (cytochrome P450 enzymes)?
A: not a substrate, nor an inducer or inhibitor

Q: And the “effect of compound alone on KG-1 growth, lower/low dose” value ([5]; lower (low) dose of compound (added at 2 uM and 5 uM))?
A: little effect on leukemia cell growth

Q: And the “potentiation of low dose VP-16 on KG-1 growth, lower/low dose of compound” value ([5]; lower (low) dose of compound + VP-16 0.05 uM)?
A: potentiated the anti-proliferative effect of low dose VP-16
